Values quoted from earlier work as cited in patent publication US20230211112A1, “Method for emergency relief of acute ischemic attacks” (priority 2020, published 2023).

Tested on: rats
Details: confined space

Compound	oxygen consumption reduced compared to the control (average, vs air environment, same initial oxygen concentration)	maximum survival time increased (vs air environment control)	oxygen consumption decreased (vs air environment control)	time of maximum animal survival increased (vs air environment control)
[Ar] [argon]	27%	33%	–	–
[Xe] [xenon]	–	–	3.2 times	3.5 times
